Where two headings read alike, the source gives them in different places.

Series [1] relates to lethal effect of norepinephrine. As to the kind of experiment: adrenolytic activity in vivo in rats towards the lethal effect of norepinephrine. To be noted: Rattus norvegicus. How it is done:
3) Determination of the adrenolytic activity "in vivo" in rats:
(§1) a) Principle of the measurement
The intravenous injection of norepinephrine (0.4 mg.kg^-1) into wake rats causes the death of 100% of the animals. The prior administration of a substance with an alpha-blocking property enables this toxicity to be reduced.
The results are expressed in the form of the 50% effective dose (ED50), i.e. the dose in mg.kg^-1 which protects 50% of the animals.

In series [2] the test system is increase in ureteral pressure induced by norepinephrine. Description: inhibitory action on the increase in ureteral pressure induced in rabbits by intravenous norepinephrine. The series is classed as in vivo, anesthetized male rabbits. Particulars: for ED50: Oryctolagus cuniculus, iv, norepinephrine-induced ureteral hyperpressure, read-out: ID50 (50 percent inhibitory dose). How it is done:
4) Determination of the inhibitory action of the compounds towards the increase in ureteral pressure induced in rabbits by the intravenous administration of norepinephrine
as §1
The ureteral pressure is measured by catheterization of the prostatic ureter of anesthetized male rabbits. The increase in ureteral pressure is induced by an intravenous injection of norepinephrine. This hyperpressure can be inhibited by the prior administration of molecules with alpha-blocking potential.
These are shown in Table 5 in the form of the 50% inhibitory dose (ID50), which is defined as being the dose of product which, when administered intravenously, causes a 50% inhibition of the ureteral hyperpressure induced by norepinephrine.

For series [3], the target named is T1, post-synaptic alpha-adrenergic receptors (isolated rat vas deferens) (Rattus norvegicus, UniProt P43140).
T1 construct: isolated rat vas deferens; from tissue; host or cells: isolated rat vas deferens
T1 sequence (P43140 1-466): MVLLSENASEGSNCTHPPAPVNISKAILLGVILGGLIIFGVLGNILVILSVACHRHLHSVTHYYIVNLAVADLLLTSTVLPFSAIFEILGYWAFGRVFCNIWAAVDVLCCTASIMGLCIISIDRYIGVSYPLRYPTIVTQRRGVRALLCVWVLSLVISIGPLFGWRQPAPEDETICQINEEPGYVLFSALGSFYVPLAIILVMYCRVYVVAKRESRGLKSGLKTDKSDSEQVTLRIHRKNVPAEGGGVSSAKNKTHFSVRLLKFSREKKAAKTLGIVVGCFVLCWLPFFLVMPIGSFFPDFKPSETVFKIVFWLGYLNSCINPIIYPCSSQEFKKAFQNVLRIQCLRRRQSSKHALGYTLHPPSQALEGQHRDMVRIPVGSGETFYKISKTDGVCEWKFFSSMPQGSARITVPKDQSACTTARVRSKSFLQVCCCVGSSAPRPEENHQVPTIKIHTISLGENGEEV
As to the kind of experiment: alpha-blocking activity towards norepinephrine on isolated rat vas deferens. To be noted: norepinephrine contraction, read-out: pA2 (converted). How it is done: 2) Determination of the alpha-blockinq activity on isolated rat vas deferens
as §1
Stimulation of the post-synaptic alpha-adrenergic receptors by norepinephrine causes contraction of the isolated vas deferens.
The concentration of product in whose presence the norepinephrine concentration must be doubled to obtain the same effect as in the absence of said product is determined.
The logarithm of this concentration, with its sign changed, constitutes the pA2 of the products.

Series [4] can be described thus: Acute toxicity in mice, single oral administration. To be noted: mouse, in vivo, male mice, 14 days observation, read-out: LD50 (50 percent lethal dose). Here is the method: 1) Acute toxicity in mice:
Principle of the measurement
The products were administered orally, in a single dose, to male mice with an average weight of 22 g. The mortality was recorded after an observation period of 14 days.
The results are expressed in the form of the 50% lethal dose (LD50), i.e. the theoretical dose in mg.kg^-1, administered orally, which causes the death of 50% of the animals.

Setting [5] is: oral, norepinephrine 0.4 mg.kg^-1 i.v., read-out: ED50 (50 percent effective dose).

Consider `Cc1ncsc1CCN1CCN(c2ccccc2)CC1` [4-methyl-5-[2-(4-phenylpiperazin-1-yl)ethyl]thiazole, reference compound], for which the ED50 in series [1] (po, prior-art compound, under the same conditions, read-out: ED50) was 8.7 mg/kg.

As for `CCOc1ccccc1N1CCN(CCc2scnc2C)CC1.Cl.Cl.Cl` [B 1211, 4-methyl-5-[2-(4-o-ethoxyphenylpiperazin-1-yl)ethyl]thiazole trihydrochloride], the ED50 in series [2] amounted to 0.16 mg/kg; in series [1] (setting [5]), 2 mg/kg. In addition, the Kb in series [3] is 26.3 nM. In addition, the 50% lethal dose (LD50) (commonly the dose expected to kill half of the subjects tested) at 336 h in series [4] is over 1000 mg/kg.

As to `Cc1ncsc1CCN1CCN(c2ccccc2O)CC1.Cl.Cl` [B 1302, 4-methyl-5-[2-(4-o-hydroxyphenylpiperazin-1-yl)ethyl]thiazole dihydrochloride], the ED50 was 0.44 mg/kg in series [2] and 4 mg/kg in series [1] (setting [5]). Moreover, in series [3], the Kb was 126 nM. In addition, in series [4], the median lethal dose (LD50) at 336 h turned out to be 490 mg/kg.

As to `CCCCOc1ccccc1N1CCN(CCc2scnc2C)CC1.Cl` [B 1341, 4-methyl-5-[2-(4-o-butoxyphenylpiperazin-1-yl)ethyl]thiazole monohydrochloride], the ED50 was found to be 0.39 mg/kg in series [2] and 1 mg/kg in series [1] (setting [5]). The Kb in series [3] is 10 nM. In addition, the LD50 at 336 h in series [4] was over 1000 mg/kg.

For `CCCCCOc1ccccc1N1CCN(CCc2scnc2C)CC1.Cl` [B 1357, 4-methyl-5-[2-(4-o-pentoxyphenylpiperazin-1-yl)ethyl]thiazole monohydrochloride], the values for the ED50 in series [2] and in series [1] (setting [5]) were 0.46 mg/kg and 1.8 mg/kg, respectively. Besides, the Kb in series [3] is 17 nM. Further, in series [4], the LD50 at 336 h was over 1000 mg/kg.

Regarding `CCCOc1ccccc1N1CCN(CCc2scnc2C)CC1` [B 1359], the ED50 in series [1] (setting [5]) is 1.93 mg/kg. Besides, the Kb in series [3] is 57.5 nM. In addition, the LD50 at 336 h in series [4] is over 1000 mg/kg.

As to `Cc1ncsc1CCN1CCN(c2ccccc2OC(C)C)CC1.Cl` [B 1398, 4-methyl-5-[2-(4-o-isopropoxyphenylpiperazin-1-yl)ethyl]thiazole monohydrochloride], the ED50 is 0.09 mg/kg in series [2] and 0.44 mg/kg in series [1] (setting [5]). Besides, the “effectiveness against ureteral hyperpressure (in words)” value in series [2] (i.v., in words) is listed as “remarkably effective”. Besides, the Kb in series [3] was 17 nM. The 50% lethal dose (LD50) at 336 h in series [4] is over 1000 mg/kg.

As to `Cc1ncsc1CCN1CCN(c2ccccc2OCC(C)C)CC1` [B 1422], the ED50 in series [1] (setting [5]) was determined as 1.6 mg/kg. In addition, in series [3], the Kb is 36.3 nM. Also, in series [4], the median lethal dose (LD50) at 336 h was over 1000 mg/kg.

As to `Cc1ncsc1CCN1CCN(c2ccccc2OCCC(C)C)CC1` [B 1423], the ED50 in series [1] (setting [5]) worked out at 2.35 mg/kg. The Kb in series [3] was 45.7 nM. For the same molecule, the median lethal dose (LD50) at 336 h in series [4] is over 1000 mg/kg.

On to `Cc1ncsc1CCN1CCN(c2ccccc2OCC(C)(C)C)CC1` [B 1424], for which, in series [1] (setting [5]), the ED50 is 2.04 mg/kg. The Kb in series [3] was 200 nM. Further, in series [4], the LD50 at 336 h is over 1000 mg/kg.

As for `Cc1ncsc1CCN1CCN(c2ccccc2OCc2ccccc2)CC1` [B 1425], the ED50 in series [1] (setting [5]) was found to be 5 mg/kg. The Kb in series [3] is 63.1 nM. Further, the LD50 at 336 h in series [4] was over 1000 mg/kg.

As for `COc1ccccc1N1CCN(CCc2scnc2C)CC1.Cl.Cl.Cl` [B 1433, 4-methyl-5-[2-(4-o-methoxyphenylpiperazin-1-yl)ethyl]thiazole trihydrochloride], the ED50 in series [2] was 0.3 mg/kg; in series [1] (setting [5]), 2.66 mg/kg. In addition, the Kb in series [3] was 14.5 nM. In addition, the LD50 at 336 h in series [4] was over 1000 mg/kg.

The values above are taken from patent US5120736A, “4-methyl-5-(2-(4-phenylpiperazin-1-yl)ethyl)thiazole derivatives their method of preparation and the pharmaceutical compositions in which they are present” (Institut de Recherches Chimiques et Biologiques Appliquees, priority 1988, dated 1992).
